Measurements published in patent publication US7902363B2, “Diimide-based semiconductor materials and methods of preparing and using the same” (Polyera Corporation, priority 2006, dated 2011).

Assays:
[1] = Solubility data in organic common solvents; assay type: physicochemical; conditions: comparison in words
Text: Solubility data were obtained for compounds of the present teachings in various organic common solvents (Table 3). N,N′-bis(4-n-octyl)-1,7-dicyanoperylene-3,4:9,10-bis(dicarboxiamide) (PDI8-CN2) was included as a comparative compound.

[2] = Solubility of isolated product in common organic solvents (noted at work-up); assay type: physicochemical; conditions: product after cyanation
Description: A mixture of N,N′-bis[4-(2′,3′,4′,5′,6′-pentafluorobiphenyl)]-1,7-dibromoperylene-3,4:9,10-bis(dicarboxiamide) (0.21 g, 0.203 mmol) and CuCN (0.33 g, 3.69 mmol) in DMF (10 mL) was deaerated and placed under nitrogen. The reaction mixture was heated at 150° C. for 9 hours. After cooling to room temperature, the precipitate was collected by filtration, washed several times with MeOH, and dried overnight. The product (0.11 g, 0.12 mmol, 59.1% yield) was insoluble in common organic solvents and it was gradient-sublimed.
A mixture of N,N′-bis(4-benzoylphenyl)-1,7-dibromoperylene-3,4:9,10-bis(dicarboxiamide) (0.60 g, 0.66 mmol) and CuCN (1.07 g, 12.0 mmol) in DMF (27 mL) was deaerated and placed under nitrogen. The reaction mixture was heated at 150° C. for 6 hours. After cooling to room temperature, the precipitate was collected by filtration, washed several times with MeOH, and dried overnight. The crude solid (0.42 g) was insoluble in common organic solvents.

Compound	solubility compared to PDI8-CN2 and the other compounds of Table 3 [1]	solubility in common organic solvents [2]
CC(C)=CCC[C@H](C)CCN1C(=O)c2ccc3c4c(C#N)cc5c6c(ccc(c7c(C#N)cc(c2c37)C1=O)c64)C(=O)N(CC[C@@H](C)CCC=C(C)C)C5=O [PDICitr-CN2, N,N′-bis[(3S)-3,7-dimethyl-6-octenyl]-1,7-dicyanoperylene-3,4:9,10-bis(dicarboxiamide)]	unexpected increase in solubility	–
N#Cc1cc2c3c(ccc4c5c(C#N)cc6c7c(ccc(c1c34)c75)C(=O)N(c1ccc(C(=O)c3ccccc3)cc1)C6=O)C(=O)N(c1ccc(C(=O)c3ccccc3)cc1)C2=O [PDIPhCOPh-CN2, N,N′-bis(4-n-benzoylphenyl)-1,7-dicyanoperylene-3,4:9,10-bis(dicarboxiamide)]	–	insoluble
N,N′-bis[4-(2′,3′,4′,5′,6′-pentafluorobiphenyl)]-1,7-dibromoperylene-3,4:9,10-bis(dicarboxiamide) [PDIPhPh^F-CN2]	–	insoluble
